Laboratory results from PubChem BioAssay AID1963827 (Molecular Pharmacology Branch, DTP, NCI, 2024).
“And” between values parts separate entries of the source, which are not always exact repeats. Equal entries are not always repeated. One block for each molecule: values may come before it.

System: 994946-033-R-J1-PDC complex spheroid viability
Assay: Anticancer human tumor 994946-033-R-J1-PDC patient-derived melanoma cell line growth inhibition [POLQ]
Conditions: for viability, T/C: stronger effect = lower value
Procedure: Multicellular complex tumor spheroid response to Polymerase (POL) inhibitors (novobiocin, ART-558, RP6685) in combination with a variety of drugs and investigational agents in selected tumor cell lines
The POL inhibitors (novobiocin, ART-558, and RP6685) were evaluated both individually and in combination with standard of care and investigational anticancer small molecules within a complex spheroid model of solid tumors. . Complex spheroids include a stromal component modeled by human endothelial cells (HUVEC) and fibroblasts modeled by human mesenchymal stem cells (MSCs). The concentration ranges selected for each drug and investigational agent were based upon clinically achievable concentrations if the clinical Cmax of the agent was known.
Compounds. The drugs and investigational agents: novobiocin (NSC847541), ART-558 (NSC835418), RP-6685 (NSC848927), peposertib (NSC802822), ceralasertib (NSC780249), elimusertib (NSC800525), camonsertib (NSC841442), AZD-1390 (NSC803789), olaparib (NSC753686), talazoparib (NSC767125), rucaparib (NSC756644), sotorasib (NSC818433), MRTX-1133 (NSC836407), SN-38 (NSC673596), topotecan (NSC609699), epotoside (NSC141540), doxorubicin (NSC123127), gemcitabine (NSC613327), 5-fluorouracil (NSC19893), paclitaxel (NSC125973), vemurafenib (NSC761431), MSA-2 (NSC828583), SN-011 (NSC837082), adavosertib (NSC754352), prexasertib (NSC758257), carboplatin (NSC241240) and oxaliplatin (NSC266046), were obtained from the National Cancer Institute (NCI) Developmental Therapeutics Program Chemical Repository (21). The FDA-approved anticancer drug set is available from the Developmental Therapeutics Program at https://dtp.cancer.gov/organization/dscb/obtaining/. […] The stock solutions were prepared in dimethyl sulfoxide (DMSO, Sigma-Aldrich, St. Louis, MO, cat. D2650), except for the platinum compounds which were prepared in saline (Quality Biological, Gaithersburg, MD, cat. 114-055-101), at 800-fold the tested concentration and stored at -70 degrees C prior to their use. All drugs and investigational agents were tested over a range starting from a high concentration at or near the clinical Cmax and decreasing in half-log increments. If the clinical Cmax for an agent had not been determined, the highest concentration tested was 10 microM, except for SN-38, which was tested at a high concentration of 1 microM.
Cell Culture. All cells were maintained in an incubator at 37 degrees C and 5% CO2 with 95% humidity. The PDC lines were cultured according to standard operating procedures established by the NCI PDMR (https://pdmr.cancer.gov). Table 3 of the manuscript, lists the cell lines along with the number of the three cell types plated to form the mct-spheroids and media for tumor cell growth. After thawing, all PDC lines, except 997537-175-T-J1-PDC and 415267-285-R-J2-PDC, were cultured in Matrigel-coated flasks prepared with a working solution of 1X Ham's F-12 nutrient mix, without supplementation (Thermo Fisher Scientific, cat. 11765054), 100 U/mL penicillin-streptomycin (Thermo Fisher Scientific, cat. 15140122), and 2.5% Matrigel (Corning Inc., Corning, NY, cat. 354248) for the first three passages. The two PDC lines 997537-175-T-J1-PDC and 415267-285-R-J2-PDC were cultured on uncoated flasks. The 857933-349-R-J2-PDC line was cultured in 6C/Colon 1B media containing advanced DMEM/F-12 (Thermo Fisher Scientific, cat. 12634028), 10 mM HEPES (Thermo Fisher Scientific, cat. 15630080), 1X GlutaMAX supplement (Thermo Fisher Scientific, cat. 35050061), 0.1 mg/mL primocin (InvivoGen, San Diego, CA, cat. ant-pm-2), 10% defined fetal bovine serum, heat inactivated (HyClone Laboratories Inc., Logan, UT, cat. SH30070.03HI), 50% L-WRN conditioned media (ATCC, cat. CRL-3276), 1.25 mM N-Acetyl-L-cysteine (Sigma-Aldrich, cat. A9165), 10 mM nicotinamide (Sigma-Aldrich, cat. N0636), 1X B-27 supplement (Thermo Fisher Scientific, cat. 17504044), 1X N-2 supplement (Thermo Fisher Scientific, cat. […]

[1] = compound alone, run of 11/06/2023
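Further: spheroids exposed to drugs for 7 days.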
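Wherever viability, T/C is given: 100% = DMSO vehicle treated spheroids.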

Structure (SMILES): COc1cccc2c1C(=O)c1c(O)c3c(c(O)c1C2=O)CC(O)(C(=O)CO)CC3OC1CC(N)C(O)C(C)O1 (configuration not stated) + COC1C(OC(N)=O)C(O)C(Oc2ccc3c(O)c(NC(=O)c4ccc(O)c(CC=C(C)C)c4)c(=O)oc3c2C)OC1(C)C
IC50 (curve of first compound, second compound 0.0316 µM): < 31.6 nM | IC50 (curve of first compound, second compound 0.1 µM): < 31.6 nM | IC50 (curve of first compound, second compound 0.316 µM): < 31.6 nM | IC50 (curve of first compound, second compound 1 µM): < 31.6 nM | IC50 (curve of first compound, second compound 3.16 µM): < 31.6 nM | IC50 (curve of first compound, second compound 10 µM): < 31.6 nM | viability, T/C (second compound 0.0316 µM, first compound 0.0316 µM): 30% | viability, T/C (second compound 0.0316 µM, first compound 0.1 µM): 9.63% | viability, T/C (second compound 0.0316 µM, first compound 0.316 µM): 3% | viability, T/C (second compound 0.0316 µM, first compound 1 µM): 2.19% | viability, T/C (second compound 0.0316 µM, first compound 3.16 µM): 0.88% | viability, T/C (second compound 0.0316 µM, first compound 10 µM): 1.18% | viability, T/C (second compound 0.1 µM, first compound 0.0316 µM): 38.2% | viability, T/C (second compound 0.1 µM, first compound 0.1 µM): 11.2% | viability, T/C (second compound 0.1 µM, first compound 0.316 µM): 1.88% | viability, T/C (second compound 0.1 µM, first compound 1 µM): 1.88% | viability, T/C (second compound 0.1 µM, first compound 3.16 µM): 1.36% | viability, T/C (second compound 0.1 µM, first compound 10 µM): 0.62% | viability, T/C (second compound 0.316 µM, first compound 0.0316 µM): 29.7% | viability, T/C (second compound 0.316 µM, first compound 0.1 µM): 8.65% | viability, T/C (second compound 0.316 µM, first compound 0.316 µM): 5.33% | viability, T/C (second compound 0.316 µM, first compound 1 µM): 1.37% | viability, T/C (second compound 0.316 µM, first compound 3.16 µM): 0.61% | viability, T/C (second compound 0.316 µM, first compound 10 µM): 1.78% | viability, T/C (second compound 1 µM, first compound 0.0316 µM): 38.5% | viability, T/C (second compound 1 µM, first compound 0.1 µM): 21.4% | viability, T/C (second compound 1 µM, first compound 0.316 µM): 2.96% | viability, T/C (second compound 1 µM, first compound 1 µM): 0.39% | viability, T/C (second compound 1 µM, first compound 3.16 µM): 0.88% | viability, T/C (second compound 1 µM, first compound 10 µM): 0.7% | viability, T/C (second compound 3.16 µM, first compound 0.0316 µM): 29.7% | viability, T/C (second compound 3.16 µM, first compound 0.1 µM): 7.94% | viability, T/C (second compound 3.16 µM, first compound 0.316 µM): 3.1% | viability, T/C (second compound 3.16 µM, first compound 1 µM): 0.41% | viability, T/C (second compound 3.16 µM, first compound 3.16 µM): 0.77% | viability, T/C (second compound 3.16 µM, first compound 10 µM): 0.92% | viability, T/C (second compound 10 µM, first compound 0.0316 µM): 29.2% | viability, T/C (second compound 10 µM, first compound 0.1 µM): 9.79% | viability, T/C (second compound 10 µM, first compound 0.316 µM): 2.2% | viability, T/C (second compound 10 µM, first compound 1 µM): 0.59% | viability, T/C (second compound 10 µM, first compound 3.16 µM): 1.28% | viability, T/C (second compound 10 µM, first compound 10 µM): 0.88%

Structure (SMILES): COc1cc(C2c3cc4c(cc3C(OC3OC5COC(C)OC5C(O)C3O)C3COC(=O)C23)OCO4)cc(OC)c1O (configuration not stated)
viability, T/C (compound 0.0316 µM): 92.1% and 89.8% and 87.4% | viability, T/C (compound 0.1 µM): 56.1% and 74.7% and 56.7% | viability, T/C (compound 0.316 µM): 42.6% and 37.3% and 54.9% | viability, T/C (compound 1 µM): 36.4% and 29.4% and 38.1% | viability, T/C (compound 3.16 µM): 15% and 14.1% and 14.8% | viability, T/C (compound 10 µM): 5.65% and 9.75% and 6.75% | IC50 (curve of compound): 212 nM and 240 nM and 313 nM

IC50 [1]: > 10000 nM
Structure (SMILES): Nc1ccc(C#CCN(C(=O)Cc2ncc(C(F)(F)F)cc2C(F)(F)F)c2ccc(F)cc2)nn1
viability, T/C (compound 10 µM): 94.6% [middle of 13 runs]

Structure (SMILES): CC1COCCN1c1cc(C2(S(C)(=N)=O)CC2)nc(-c2ccnc3[nH]ccc23)n1 (configuration not stated)
viability, T/C (compound 0.0316 µM): 106% and 105% and 113% | viability, T/C (compound 0.1 µM): 112% and 97.5% and 98.7% | viability, T/C (compound 0.316 µM): 90.5% and 86.8% and 93.9% | viability, T/C (compound 1 µM): 70.6% and 57.9% and 68.7% | viability, T/C (compound 3.16 µM): 42% and 44.5% and 52% | viability, T/C (compound 10 µM): 56.6% and 52.9% and 32.3% | IC50 (curve of compound): 8060 nM and 2890 nM and 3410 nM

Structure (SMILES): CC1COCCN1c1cc(C2(O)CC3CCC(C2)O3)c2cnn(-c3ccn[nH]3)c2n1 (configuration not stated)
viability, T/C (compound 0.0316 µM): 38.3% and 52.8% and 44.6% | viability, T/C (compound 0.1 µM): 16.8% and 26.7% and 40.6% | viability, T/C (compound 0.316 µM): 18.2% and 26.2% and 20% | viability, T/C (compound 1 µM): 23.1% and 20.1% and 17.9% | viability, T/C (compound 3.16 µM): 9.3% and 14.8% and 12% | viability, T/C (compound 10 µM): 6.01% and 4.54% and 7.55% | IC50 (curve of compound): < 31.6 nM

Structure (SMILES): COc1cc2cc(C(=O)CCC(=O)O)sc2cc1OC
viability, T/C (compound 0.0316 µM): 75.1% and 90.9% and 96.1% | viability, T/C (compound 0.1 µM): 84.1% and 72% and 94.5% | viability, T/C (compound 0.316 µM): 85.4% and 111% and 76.8% | viability, T/C (compound 1 µM): 88.2% and 64.1% and 113% | viability, T/C (compound 3.16 µM): 96% and 104% and 75.2% | viability, T/C (compound 10 µM): 95.3% and 89.2% and 61.4% | IC50 (curve of compound): > 10000 nM

IC50 (compound alone, run of 10/31/2023): > 10000 nM | IC50 [1]: > 10000 nM
Structure (SMILES): Cc1cccc(N(C)C(=O)C2C(O)CCN2c2nc(C)cc(C(F)(F)F)c2C#N)c1 (configuration not stated)
viability, T/C (compound 0.1 µM): 93.6% [middle of 13 runs]

Structure (SMILES): CC1COCCN1c1cc(-c2ccnn2C)c2ccnc(-c3ccn[nH]3)c2n1 (configuration not stated)
viability, T/C (compound 0.0316 µM): 68% and 74.9% and 58.3% | viability, T/C (compound 0.1 µM): 37.9% and 28.1% (2×) | viability, T/C (compound 0.316 µM): 24.9% and 25.2% and 20.4% | viability, T/C (compound 1 µM): 17.2% and 25.2% and 29.2% | viability, T/C (compound 3.16 µM): 15.5% and 20.5% and 13.3% | viability, T/C (compound 10 µM): 10.3% and 16% and 14.4% | IC50 (curve of compound): 64 nM and 58.7 nM and 43.7 nM
